Some test systems named below: HOP-92; NCI-H522; NCI-H460; SK-MEL-5; OVCAR-4; UACC-257; COLO 205; SK-MEL-2; LOX IMVI; 786-0; EKVX; SF-268; OVCAR-3; SW-620; MDA-MB-231; SF-295; SN12C; HL-60; RPMI-8226; HCC 2998.
Holding throughout (experiment): growth of human tumour cells (NCI), 48 h

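Exposure lasted 48 hours, with cells grown in 96-well plates and compounds tested at five concentrations. Here, GI50 denotes the concentration required for 50% inhibition of growth.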 The source made the active and inactive calls. Rule as the data show it: active = GI50 up to about 1.1 µM and inactive = higher. Where a SMILES comes first, the peptide text is derived from it. The star is where a group is joined. Boc = CC(C)(C)OC(=O)*; Bn = c1ccc(C*)cc1

Take `COc1c(C)c(C/C=C(\C)CC/C=C(\C)CC/C=C(\C)CCC=C(C)C)c(OC)c2ccccc12`: the GI50 with HOP-92 was > 100 µM (inactive); with NCI-H522 it was > 100 µM (inactive); in the assay on NCI-H460 it was 39.7 µM (inactive); with SK-MEL-5, > 100 µM (inactive); with OVCAR-4, > 100 µM (inactive); with UACC-257, > 100 µM (inactive). The GI50 is > 100 µM (inactive) in the assay with COLO 205; > 100 µM (inactive) with SK-MEL-2; 70 µM (inactive) with LOX IMVI; > 100 µM (inactive) in the assay on 786-0; > 100 µM (inactive) with EKVX; > 100 µM (inactive) with SF-268. The GI50 with OVCAR-3, in the assay on SW-620, in the assay with MDA-MB-231, in the assay on SF-295 and in the assay on SN12C was > 100 µM (inactive) each time.
Regarding `Cn1c(N/N=C/c2ccc(Cl)cc2)nc(-c2ccc(Cl)cc2)c(C#N)c1=O`, the GI50 in the assay on HOP-92 is 22.3 µM (inactive); with NCI-H522, 10.9 µM (inactive); in the assay on NCI-H460, 27 µM (inactive); in the assay with SK-MEL-5, 45.1 µM (inactive); in the assay on OVCAR-4, 23.8 µM (inactive); in the assay with HL-60, 44.7 µM (inactive). Further, the GI50 was 72.3 µM (inactive) in the assay with UACC-257; 47 µM (inactive) in the assay on COLO 205; 33.3 µM (inactive) in the assay on RPMI-8226; 10.5 µM (inactive) in the assay on SK-MEL-2; 25.2 µM (inactive) in the assay with LOX IMVI; 15.3 µM (inactive) in the assay on 786-0. Also, the GI50 with EKVX was 25.6 µM (inactive); in the assay with SF-268, 35.4 µM (inactive); with OVCAR-3, 16.4 µM (inactive); in the assay on SW-620, 31 µM (inactive); in the assay on MDA-MB-231, 22.4 µM (inactive); in the assay with SF-295, 17.5 µM (inactive). The GI50 in the assay with SN12C is 44.1 µM (inactive).
For `COC(=O)C(CC(C)C)NC(=O)CNC(=O)C(Cc1ccc(OCc2ccccc2)cc1)NC(=O)C(COCc1ccccc1)NC(=O)OC(C)(C)C` (stereo unspecified) (Boc-S(Bn)Y(Bn)GL-OMe; configuration not given here), the GI50 in the assay on HOP-92 was > 100 µM (inactive); in the assay on NCI-H522 it was 72.8 µM (inactive); in the assay with NCI-H460, > 100 µM (inactive); in the assay with SK-MEL-5, > 100 µM (inactive); in the assay with OVCAR-4, > 100 µM (inactive); with HL-60 it was 4.56 µM (inactive). Also, the GI50 with COLO 205 was > 100 µM (inactive); with RPMI-8226, 9.51 µM (inactive); with LOX IMVI, 58.5 µM (inactive); with 786-0, > 100 µM (inactive); in the assay on EKVX, > 100 µM (inactive); with SF-268, > 100 µM (inactive). For the same compound, the GI50 with OVCAR-3, in the assay with SW-620, in the assay on MDA-MB-231, with SF-295 and in the assay on SN12C was > 100 µM (inactive) throughout.
Consider `CCOC(=O)CCCn1cc(C(=O)OC)nn1`, for which the GI50 in the assay with HOP-92, in the assay on NCI-H460, in the assay on SK-MEL-5, in the assay on OVCAR-4, in the assay with UACC-257 and in the assay on COLO 205 was > 100 µM (inactive) each time. Moreover, the GI50 with SK-MEL-2, in the assay with LOX IMVI, in the assay with 786-0, in the assay on EKVX, in the assay on SF-268 and in the assay with SW-620 was > 100 µM (inactive) throughout. The GI50 with HCC 2998 was > 100 µM (inactive); with MDA-MB-231 it was > 100 µM (inactive); in the assay on SF-295 it was 46.5 µM (inactive); with SN12C it was > 100 µM (inactive).
Regarding `C(/c1ccco1)=c1/nc(-c2ccccc2)n2c1nc1ccccc12`, the GI50 with HOP-92 was 38.1 µM (inactive); in the assay on NCI-H460 it was 39.2 µM (inactive); in the assay on SK-MEL-5, 20.6 µM (inactive); in the assay with OVCAR-4, 20.5 µM (inactive); with HL-60 it was > 100 µM (inactive); in the assay with UACC-257, > 100 µM (inactive). In addition, the GI50 is 98.9 µM (inactive) in the assay on COLO 205; 11.2 µM (inactive) in the assay with RPMI-8226; 28.2 µM (inactive) in the assay with SK-MEL-2; 42.4 µM (inactive) in the assay with LOX IMVI; 11 µM (inactive) with 786-0; 0.0107 µM (active) in the assay on EKVX. In addition, the GI50 is 31.4 µM (inactive) in the assay on SF-268; 9.06 µM (inactive) in the assay with OVCAR-3; 21.7 µM (inactive) in the assay on SW-620; 16.5 µM (inactive) in the assay on MDA-MB-231; 12.9 µM (inactive) in the assay on SF-295; 37.4 µM (inactive) in the assay on SN12C.
Consider `CC1=C[C@H](C[C@]2(C)c3c(c4c(C)cccc4oc3=O)O[C@@H]2C)OC1=O`, for which the GI50 in the assay with NCI-H522 is 22.6 µM (inactive); in the assay with NCI-H460, > 100 µM (inactive); with SK-MEL-5, > 100 µM (inactive); in the assay on HL-60, 22.5 µM (inactive); with UACC-257 it was > 100 µM (inactive); with COLO 205, 49.9 µM (inactive). In addition, the GI50 in the assay with RPMI-8226 is 0.0778 µM (active); with SK-MEL-2, > 100 µM (inactive); in the assay on LOX IMVI, 34.3 µM (inactive); with 786-0 it was 22.8 µM (inactive); with EKVX it was > 100 µM (inactive); with SF-268, 24.4 µM (inactive). The GI50 in the assay on OVCAR-3 is 37 µM (inactive); in the assay on SW-620, 21.7 µM (inactive); in the assay with HCC 2998, > 100 µM (inactive); in the assay with MDA-MB-231 it was 40.2 µM (inactive); with SF-295, > 100 µM (inactive); in the assay with SN12C it was 54.8 µM (inactive).
Turning to `CC1(C)OCC(C2OC(C)(C)OC2[C@H]2O[C@@]3(O)[C@H]4[C@H](C=CC[C@@H]42)[C@@H](OCc2ccccc2)[C@H](OCc2ccccc2)[C@H]3OCc2ccccc2)O1` (stereo partly specified), the GI50 is 44.2 µM (inactive) in the assay on HOP-92; 37.1 µM (inactive) in the assay with NCI-H522; 17.9 µM (inactive) in the assay on NCI-H460; 43.2 µM (inactive) in the assay on SK-MEL-5; 41 µM (inactive) in the assay with OVCAR-4; 14.4 µM (inactive) in the assay with HL-60. Besides, the GI50 in the assay with UACC-257 is 18.8 µM (inactive); with COLO 205, > 100 µM (inactive); with SK-MEL-2 it was 20.7 µM (inactive); in the assay on LOX IMVI, 22.6 µM (inactive); with 786-0, 35 µM (inactive); in the assay on EKVX it was 33.7 µM (inactive). The GI50 is 70 µM (inactive) in the assay with SF-268; 52.2 µM (inactive) in the assay with OVCAR-3; 27.8 µM (inactive) in the assay with SW-620; 94.8 µM (inactive) in the assay on MDA-MB-231; > 100 µM (inactive) in the assay with SF-295; 41.2 µM (inactive) in the assay on SN12C.
Turning to `O=C1CCSCCC(=O)Nc2ccccc2N1`, the GI50 in the assay with HOP-92, in the assay on NCI-H522, with NCI-H460, with SK-MEL-5, in the assay on OVCAR-4 and with HL-60 was > 100 µM (inactive) throughout. Moreover, the GI50 in the assay with UACC-257, in the assay with COLO 205, in the assay with RPMI-8226, in the assay with SK-MEL-2, with LOX IMVI and in the assay on 786-0 was > 100 µM (inactive) throughout. Further, the GI50 in the assay on EKVX, in the assay on SF-268, in the assay on OVCAR-3, with SW-620, in the assay with MDA-MB-231 and in the assay with SF-295 was > 100 µM (inactive) each time. In the assay on SN12C, the GI50 is > 100 µM (inactive).
Consider `CCc1ccc(Nc2cc(=O)[nH]c(SCc3ccccc3)n2)cc1`, for which the GI50 is 31.2 µM (inactive) in the assay with HOP-92; > 100 µM (inactive) in the assay with NCI-H522; 78 µM (inactive) in the assay on SK-MEL-5; > 100 µM (inactive) in the assay with HL-60; > 100 µM (inactive) in the assay on UACC-257; > 100 µM (inactive) with COLO 205. In addition, the GI50 was > 100 µM (inactive) in the assay on RPMI-8226; > 100 µM (inactive) in the assay on SK-MEL-2; > 100 µM (inactive) in the assay on LOX IMVI; 43.6 µM (inactive) in the assay on 786-0; 57.7 µM (inactive) with EKVX; 73.1 µM (inactive) in the assay with SF-268. Further, the GI50 in the assay on OVCAR-3 is 39.4 µM (inactive); in the assay with SW-620 it was > 100 µM (inactive); in the assay with MDA-MB-231, 4.17 µM (inactive); in the assay with SF-295 it was 46.2 µM (inactive); with SN12C, > 100 µM (inactive).
For the compound `Cc1c2oc(=O)c(C#N)cc2c2ccccn12`, the GI50 is > 100 µM (inactive) in the assay with HOP-92; 32.5 µM (inactive) with NCI-H460; > 100 µM (inactive) with SK-MEL-5; > 100 µM (inactive) in the assay with OVCAR-4; > 100 µM (inactive) in the assay with HL-60; > 100 µM (inactive) in the assay on UACC-257. The GI50 is > 100 µM (inactive) with COLO 205; > 100 µM (inactive) in the assay on RPMI-8226; > 100 µM (inactive) in the assay on SK-MEL-2; 71.9 µM (inactive) in the assay with LOX IMVI; > 100 µM (inactive) in the assay on 786-0; > 100 µM (inactive) in the assay on EKVX. For the same compound, the GI50 in the assay with SF-268 is > 100 µM (inactive); in the assay with OVCAR-3, 17.3 µM (inactive); in the assay on SW-620, > 100 µM (inactive); with HCC 2998 it was > 100 µM (inactive); in the assay with MDA-MB-231, > 100 µM (inactive); in the assay with SF-295 it was 20.2 µM (inactive).
Turning to `C[N+](C)([O-])CCCNc1ccnc2cccc([N+](=O)[O-])c12`, the GI50 with NCI-H522 was 14.2 µM (inactive); with NCI-H460, 15.5 µM (inactive); with SK-MEL-5, 16.1 µM (inactive); with OVCAR-4 it was 20.5 µM (inactive); in the assay on HL-60, 20.2 µM (inactive); in the assay with UACC-257, 45.8 µM (inactive). Besides, the GI50 was 20.7 µM (inactive) in the assay on COLO 205; 21.5 µM (inactive) in the assay on RPMI-8226; 19.8 µM (inactive) in the assay with SK-MEL-2; 28.2 µM (inactive) in the assay on LOX IMVI; > 100 µM (inactive) with 786-0; > 100 µM (inactive) in the assay with EKVX. Moreover, the GI50 in the assay with SF-268 was 27 µM (inactive); with OVCAR-3, 20.7 µM (inactive); with SW-620 it was 31.1 µM (inactive); in the assay with HCC 2998, 27.3 µM (inactive); in the assay with MDA-MB-231, 53.5 µM (inactive); with SF-295, 92.7 µM (inactive). The GI50 with SN12C was 47.1 µM (inactive).

The record behind these values is ChEMBL document CHEMBL1201862, “PubChem BioAssay data set” (2004).
